Read-outs that look alike come from different tables or passages of the source. Where only a bound is given, the exact number is not on record here.

The nature of data set [1]: Cytotoxicity in HepG2.117 cells, ATPlite Luminescence Assay. The data set is classed as cell-based, human. To be noted: human, incubated for 3 days, mean value, read-out: TOX-HepG2.117 CC50 (μM, mean value). As to the method:
Cytotoxicity of the compounds was tested using HepG2 or HepG2.117 cells, incubated for 3 days in the presence of compounds. The viability of the cells was assessed using the PERKIN ELMER ATPlite Luminescence Assay System.”
A general note: Cellular ATP, detected with luciferase, serves as a proxy for viable cell number.

The next data set relates to HBV. Kind of data set: Anti-HBV activity: intracellular HBV DNA by real-time PCR in HepG2.117 cell line. The format is cell-based, Hepatitis B virus. To be noted: Hepatitis B virus, read-out: HBV-AVE-HepG2.117 EC50 (μM, mean value). The procedure: The anti HBV activity was measured using the HepG2.117 cell line, a stable, inducibly HBV producing cell line, which replicates HBV in the absence of doxicycline (Tet-off system). The HepG2 cell line is available from ATCC® under number HB-8065. Transfection of the HepG2 cell line can be as described in Sun and Nassal 2006 Journal of Hepatology 45 (2006) 636-645 “Stable HepG2- and Huh7-based human hepatoma cell lines for efficient regulated expression of infectious hepatitis B virus”.
For the antiviral assay, HBV replication was induced, followed by a treatment with serially diluted compound in 96-well plates. After 3 days of treatment, the antiviral activity was determined by quantification of intracellular HBV DNA using real-time PCR and an HBV specific primer set and probe.
In general terms: Real-time PCR tracks product formation cycle by cycle.

Where [2] appears, read: 72 h, HepG2.117 cells, 3 days of treatment, intracellular HBV DNA by real-time PCR, mean value.

With `C[C@@H]1Cc2nn3c(c2CN1C(=O)c1ccc(Cl)c(Cl)c1)C(=O)N(Cc1cccnc1)CC3` [Compound 16, (3R)-2-(3,4-Dichlorobenzoyl)-3-methyl-9-[(pyridin-3-yl)methyl]-1,2,3,4,8,9-hexahydropyrido-[4′,3′:3,4]pyrazolo[1,5-a]pyrazin-10(7H)-one], the CC50 at 3 days in data set [1] is greater than 50 µM. For the same compound, the EC50 in the data set with HBV (setting [2]) turned out to be 0.079 µM.
With `C[C@@H]1Cc2nn3c(c2CN1C(=O)c1ccc(Cl)c(Cl)c1)C(=O)N(Cc1ccncc1)CC3` [Compound 17, (3R)-2-(3,4-Dichlorobenzoyl)-3-methyl-9-[(pyridin-4-yl)methyl]-1,2,3,4,8,9-hexahydropyrido-[4′,3′:3,4]pyrazolo[1,5-a]pyrazin-10(7H)-one], the CC50 at 3 days in data set [1] was greater than 50 µM. For the same compound, the EC50 in the data set on HBV (HepG2.117, 72 h) came to 0.436 µM.
For the compound `C[C@@H]1Cc2nn3c(c2CN1C(=O)c1ccc(Cl)c(Cl)c1)C(=O)N(Cc1ccnn1C)CC3` [Compound 18, (3R)-2-(3,4-Dichlorobenzoyl)-3-methyl-9-[(1-methyl-1H-pyrazol-5-yl)methyl]-1,2,3,4,8,9-hexahydropyrido[4′,3′:3,4]pyrazolo[1,5-a]pyrazin-10(7H)-one], the CC50 at 3 days in data set [1] was greater than 50 µM. Further, the concentration giving a half-maximal response (EC50) in the data set on HBV (setting [2]) stood at 0.252 µM.
For the compound `C[C@@H]1Cc2nn3c(c2CN1C(=O)c1ccc(Cl)c(Cl)c1)C(=O)N(Cc1ccn(C)n1)CC3` [Compound 19, (3R)-2-(3,4-Dichlorobenzoyl)-3-methyl-9-[(1-methyl-1H-pyrazol-3-yl)methyl]-1,2,3,4,8,9-hexahydropyrido[4′,3′:3,4]pyrazolo[1,5-a]pyrazin-10(7H)-one], the CC50 at 3 days in data set [1] was greater than 50 µM. Besides, the EC50 in the data set on HBV (setting [2]) was found to be 0.079 µM.
`C[C@@H]1Cc2nn3c(c2CN1C(=O)c1ccc(Cl)c(Cl)c1)C(=O)N(Cc1cc[nH]n1)CC3` [Compound 20, (3R)-2-(3,4-Dichlorobenzoyl)-3-methyl-9-[(1H-pyrazol-3-yl)methyl]-1,2,3,4,8,9-hexahydro-pyrido[4′,3′:3,4]pyrazolo[1,5-a]pyrazin-10(7H)-one]: the CC50 at 3 days in data set [1] is greater than 50 µM. Moreover, the EC50 in the data set with HBV (setting [2]) turned out to be 0.108 µM.
On to `C[C@@H]1Cc2nn3c(c2CN1C(=O)c1ccc(Cl)c(Cl)c1)C(=O)N(Cc1ccon1)CC3` [Compound 21, (3R)-2-(3,4-Dichlorobenzoyl)-3-methyl-9-[(1,2-oxazol-3-yl)methyl]-1,2,3,4,8,9-hexahydro-pyrido[4′,3′:3,4]pyrazolo[1,5-a]pyrazin-10(7H)-one], for which, in data set [1], the CC50 at 3 days is greater than 50 µM. For the same compound, in the data set with HBV (setting [2]), the EC50 was determined as 0.268 µM.
For `C[C@@H]1Cc2nn3c(c2CN1C(=O)c1ccc(Cl)c(Cl)c1)C(=O)N(Cc1cscn1)CC3` [Compound 22, (3R)-2-(3,4-Dichlorobenzoyl)-3-methyl-9-[(1,3-thiazol-4-yl)methyl]-1,2,3,4,8,9-hexahydro-pyrido[4′,3′:3,4]pyrazolo[1,5-a]pyrazin-10(7H)-one], in that order: greater than 50 µM and 0.129 µM.
Take `COc1ccc([C@@H](C)N2CCn3nc4c(c3C2=O)CN(C(=O)c2ccc(Cl)c(Cl)c2)[C@H](C)C4)cc1` [Compound 23, (3R)-2-(3,4-Dichlorobenzoyl)-9-[(1R)-1-(4-methoxyphenyl)ethyl]-3-methyl-1,2,3,4,8,9-hexahydropyrido[4′,3′:3,4]pyrazolo[1,5-a]pyrazin-10(7H)-one]: in data set [1], the CC50 at 3 days is greater than 50 µM. For the same compound, the EC50 with HBV (setting [2]) came out at 0.022 µM.
For `COc1ccc([C@H](C)N2CCn3nc4c(c3C2=O)CN(C(=O)c2ccc(Cl)c(Cl)c2)[C@H](C)C4)cc1` [Compound 24, (3R)-2-(3,4-dichlorobenzoyl)-9-[(1S)-1-(4-methoxyphenyl)ethyl]-3-methyl-1,2,3,4,8,9-hexahydropyrido[4′,3′:3,4]pyrazolo[1,5-a]pyrazin-10(7H)-one], in that order: 10.4 µM and 0.036 µM.
In the case of `C[C@@H]1Cc2nn3c(c2CN1C(=O)c1ccc(Cl)c(Cl)c1)C(=O)N([C@H](C)c1ccc(F)cc1)CC3` [Compound 25, (3R)-2-(3,4-Dichlorobenzoyl)-9-[(1R)-1-(4-fluorophenyl)ethyl]-3-methyl-1,2,3,4,8,9-hexahydropyrido[4′,3′:3,4]pyrazolo[1,5-a]pyrazin-10(7H)-one], in data set [1], the CC50 at 3 days was greater than 25 µM. Moreover, the EC50 in the data set on HBV (setting [2]) stood at 0.016 µM.
Taken in the same sequence, the figures for `C[C@@H]1Cc2nn3c(c2CN1C(=O)c1ccc(Cl)c(Cl)c1)C(=O)N([C@@H](C)c1ccc(F)cc1)CC3` [Compound 26, (3R)-2-(3,4-Dichlorobenzoyl)-9-[(1S)-1-(4-fluorophenyl)ethyl]-3-methyl-1,2,3,4,8,9-hexahydro-pyrido[4′,3′:3,4]pyrazolo[1,5-a]pyrazin-10(7H)-one] were 26.2 µM and 0.028 µM.
For `C[C@@H]1Cc2nn3c(c2CN1C(=O)c1ccc(Cl)c(Cl)c1)C(=O)N([C@H](C)c1ccc(OC(F)F)cc1)CC3` [Compound 27, (3R)-2-(3,4-Dichlorobenzoyl)-9-{(1R)-1-[4-(difluoromethoxy)phenyl]ethyl}-3-methyl-1,2,3,4,8,9-hexahydropyrido[4′,3′:3,4]pyrazolo[1,5-a]pyrazin-10(7H)-one], in that order: greater than 50 µM and 0.103 µM.
`C[C@@H]1Cc2nn3c(c2CN1C(=O)c1ccc(Cl)c(Cl)c1)C(=O)N([C@@H](C)c1ccc(OC(F)F)cc1)CC3` [Compound 28, (3R)-2-(3,4-Dichlorobenzoyl)-9-{(1S)-1-[4-(difluoromethoxy)phenyl]ethyl}-3-methyl-1,2,3,4,8,9-hexahydropyrido[4′,3′:3,4]pyrazolo[1,5-a]pyrazin-10(7H)-one]: in data set [1], the cytotoxic concentration (CC50) at 3 days was 16.7 µM. Besides, the EC50 in the data set on HBV (setting [2]) stood at 0.057 µM.
Regarding `C[C@@H]1Cc2nn3c(c2CN1C(=O)c1ccc(Cl)c(Cl)c1)C(=O)N([C@@H](C)c1ncn(S(=O)(=O)N(C)C)n1)CC3` [Compound 29, 3-{(1S)-1-[(3R)-2-(3,4-Dichlorobenzoyl)-3-methyl-10-oxo-1,3,4,7,8,10-hexahydropyrido-[4′,3′:3,4]pyrazolo[1,5-a]pyrazin-9(2H)-yl]ethyl}-N,N-dimethyl-1H-1,2,4-triazole-1-sulfonamide], the CC50 at 3 days in data set [1] was greater than 50 µM. In addition, the EC50 with HBV (setting [2]) was found to be 0.741 µM.
As to `C[C@@H]1Cc2nn3c(c2CN1C(=O)c1ccc(Cl)c(Cl)c1)C(=O)N([C@@H](C)c1nc[nH]n1)CC3` [Compound 30, (3R)-2-(3,4-Dichlorobenzoyl)-3-methyl-9-[(1S)-1-(1H-1,2,4-triazol-3-yl)ethyl]-1,2,3,4,8,9-hexa-hydropyrido[4′,3′:3,4]pyrazolo[1,5-a]pyrazin-10(7H)-one], the CC50 at 3 days in data set [1] was greater than 50 µM. The EC50 with HBV (HepG2.117, 72 h) is 1.5 µM.
As to `CN1CCCn2nc3c(c2C1=O)CN(C(=O)c1ccc(Cl)c(Cl)c1)CC3` [Compound 34, 2-(3,4-Dichlorobenzoyl)-10-methyl-1,2,3,4,7,8,9,10-octahydro-11H-pyrido[4′,3′:3,4]pyrazolo-[1,5-a][1,4]diazepin-11-one], the CC50 at 3 days in data set [1] was greater than 50 µM. In addition, the EC50 in the data set on HBV (setting [2]) turned out to be 1.38 µM.
Take `COc1ccc(CN2CCCn3nc4c(c3C2=O)CN(C(=O)c2ccc(Cl)c(Cl)c2)CC4)cc1` [Compound 36, 2-(3,4-Dichlorobenzoyl)-10-[(4-methoxyphenyl)methyl]-1,2,3,4,7,8,9,10-octahydro-11H-pyrido[4′,3′:3,4]pyrazolo[1,5-a][1,4]diazepin-11-one]: the CC50 at 3 days in data set [1] was determined as 24.6 µM. Further, the EC50 in the data set with HBV (setting [2]) turned out to be 0.077 µM.
For `O=C(c1ccc(Cl)c(Cl)c1)N1CCc2nn3c(c2C1)C(=O)N(Cc1ccncc1)CCC3` [Compound 37, 2-(3,4-Dichlorobenzoyl)-10-[(pyridin-4-yl)methyl]-1,2,3,4,7,8,9,10-octahydro-11H-pyrido-[4′,3′:3,4]pyrazolo[1,5-a][1,4]diazepin-11-one], the half-maximal cytotoxic concentration (CC50) at 3 days in data set [1] was greater than 50 µM. Besides, the EC50 with HBV (setting [2]) was 0.345 µM.
Consider `C[C@@H]1Cc2nn3c(c2CN1C(=O)c1ccc(Cl)c(Cl)c1)C(=O)NCCC3` [Compound 38, (3R)-2-(3,4-Dichlorobenzoyl)-3-methyl-1,2,3,4,7,8,9,10-octahydro-11H-pyrido[4′,3′:3,4]-pyrazolo[1,5-a][1,4]diazepin-11-one], for which the CC50 at 3 days in data set [1] was greater than 50 µM. For the same compound, the EC50 in the data set on HBV (setting [2]) came out at 1.75 µM.
Consider `CC(C)CN1CCCn2nc3c(c2C1=O)CN(C(=O)c1ccc(Cl)c(Cl)c1)[C@H](C)C3` [Compound 39, (3R)-2-(3,4-Dichlorobenzoyl)-3-methyl-10-(2-methylpropyl)-1,2,3,4,7,8,9,10-octahydro-11H-pyrido[4′,3′:3,4]pyrazolo[1,5-a][1,4]diazepin-11-one], for which the CC50 at 3 days in data set [1] is greater than 50 µM. Moreover, the EC50 with HBV (HepG2.117, 72 h) turned out to be 2.49 µM.
As to `COc1ccc(CN2CCCn3nc4c(c3C2=O)CN(C(=O)c2ccc(Cl)c(Cl)c2)[C@H](C)C4)cc1` [Compound 40, (3R)-2-(3,4-Dichlorobenzoyl)-10-[(4-methoxyphenyl)methyl]-3-methyl-1,2,3,4,7,8,9,10-octahydro-11H-pyrido[4′,3′:3,4]pyrazolo[1,5-a][1,4]diazepin-11-one], the half-maximal cytotoxic concentration (CC50) at 3 days in data set [1] was found to be 20.9 µM. Further, the EC50 in the data set with HBV (setting [2]) came to 0.022 µM.
As to `COc1ccc(CN2CC(NS(C)(=O)=O)Cn3nc4c(c3C2=O)CN(C(=O)c2ccc(Cl)c(Cl)c2)CC4)cc1` (centres unmarked) [Compound 41, N-{2-(3,4-Dichlorobenzoyl)-10-[(4-methoxyphenyl)methyl]-11-oxo-1,3,4,7,8,9,10,11-octahydro-2H-pyrido[4′,3′:3,4]pyrazolo[1,5-a][1,4]diazepin-8-yl}methanesulfonamide], the CC50 at 3 days in data set [1] was greater than 50 µM. Moreover, the EC50 with HBV (setting [2]) is 0.328 µM.

What is called CC50 is the concentration that lowers cell viability or growth by half. The term EC50 denotes the concentration needed to bring the measured effect to its halfway point.
